Test results reported in US20130072470A1 (ABBVIE INC., priority 2011, published 2013).

Biological target: T1, Jak3 enzyme (aa 811-1103) (Homo sapiens, UniProt P52333)
T1 construct: Jak3 enzyme (aa 811-1103); expressed in SF9 cells as a GST fusion; GST; made in house; host or cells: SF9 insect cells
Experiment: In vitro Jak3 kinase activity measured by time-resolved fluorescence resonance energy transfer (trFRET)
Assay type: biochemical
Details: ATP 0.001 mM
Method: In Vitro Jak3 Kinase Activity Measured by Time-Resolved Fluorescence Resonance Energy Transfer (trFRET)
Varying concentrations of inhibitor were added to an assay well containing: Jak3 enzyme (aa 811-1103; expressed in SF9 cells as a GST fusion and purified by glutathione affinity chromatography; 3 nM), peptide substrate (biotin-TYR2, Sequence: Biotin-(Ahx)-AEEEYFFLFA-amide; 2 μM), MOPSO pH 6.5 (50 mM), MgCl2 (10 mM), MnCl2 (2 mM), DTT (2.5 mM), BSA (0.01% w/v), Na3VO4 (0.1 mM) and ATP (0.001 mM). After about 60 min incubation at rt, the reaction was quenched by addition of EDTA (final concentration: 100 mM) and developed by addition of revelation reagents (final approximate concentrations: 30 mM HEPES pH 7.0, 0.06% BSA, 0.006% Tween-20, 0.24 M KF, 80 ng/mL PT66K (europium labeled anti-phosphotyrosine antibody cat #61T66KLB Cisbio, Bedford, Mass.) and 0.8 μg/mL SAXL (Phycolink streptavidin-allophycocyanin acceptor, cat #PJ52S, Prozyme, San Leandro, Calif.). The developed reaction was incubated in the dark either at about 4° C., for about 14 h or for about 60 min at rt, then read via a time-resolved fluorescence detector (Rubystar, BMG) using a 337 nm laser for excitation and emission wavelength of 665 nm. Within the linear range of the assay, the observed signal at 665 nm is directly related to phosphorylated product and used to calculate the IC50 values.

T1 sequence (P52333 811-1103): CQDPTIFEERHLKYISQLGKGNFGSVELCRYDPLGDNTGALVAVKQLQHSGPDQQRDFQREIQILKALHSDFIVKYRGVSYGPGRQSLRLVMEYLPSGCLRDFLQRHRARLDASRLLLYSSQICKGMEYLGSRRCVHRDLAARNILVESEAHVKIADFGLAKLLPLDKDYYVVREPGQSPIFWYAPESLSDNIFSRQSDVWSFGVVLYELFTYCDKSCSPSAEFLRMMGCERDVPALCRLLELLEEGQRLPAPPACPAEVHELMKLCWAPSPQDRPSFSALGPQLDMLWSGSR

SMILES	IC50 (Table B) [µM]	IC50 [µM]
CC[C@@H]1CN(C(=O)NCC(F)F)C[C@@H]1c1cnc2cnc3[nH]ccc3n12 [Example #14, (3S,4R)—N-(2,2-difluoroethyl)-3-ethyl-4-(3H-imidazo[1,2-a]pyrrolo[2,3-e]pyrazin-8-yl)pyrrolidine-1-carboxamide]	–	1 to 10
CC[C@@H]1C[C@H](NC(=O)C(CC2CC2)NC(C)=O)C[C@@H]1c1nnc2cnc3[nH]ccc3n12 (stereo partly drawn) [compound 31, 2-acetamido-3-cyclopropyl-N-((1S,3R,4S)-3-ethyl-4-(6H-pyrrolo[2,3-e][1,2,4]triazolo[4,3-a]pyrazin-1-yl)cyclopentyl)propanamide]	> 10	–
CC[C@@H]1C[C@H](NC(=O)c2ccc(C)o2)C[C@@H]1c1nnc2cnc3[nH]ccc3n12 [compound 46, N-((1S,3R,4S)-3-ethyl-4-(6H-pyrrolo[2,3-e][1,2,4]triazolo[4,3-a]pyrazin-1-yl)cyclopentyl)-5-methylfuran-2-carboxamide]	> 10	–
CC[C@@H]1C[C@@H](C(=O)NCC(F)(F)F)C[C@@H]1c1nnc2cnc3[nH]ccc3n12 [Example #6, (1R,3R,4S)-3-ethyl-4-(6H-pyrrolo[2,3-e][1,2,4]triazolo[4,3-a]pyrazin-1-yl)-N-(2,2,2-trifluoroethyl)cyclopentanecarboxamide]	–	> 10
Cc1cnc(C(=O)N[C@H]2C[C@@H](C)[C@@H](c3cnc4cnc5[nH]ccc5n34)C2)cn1 [Example #1, N-((1S,3S,4R)-3-(3H-imidazo[1,2-a]pyrrolo[2,3-e]pyrazin-8-yl)-4-methylcyclopentyl)-5-methylpyrazine-2-carboxamide]	–	> 10
C[C@@H]1C[C@@H](CCC#N)C[C@@H]1n1nnc2cnc3[nH]ccc3c21 [Example #11, 3-((1R,3R,4S)-3-methyl-4-(pyrrolo[2,3-b][1,2,3]triazolo[4,5-d]pyridin-1(6H)-yl)cyclopentyl)propanenitrile]	–	1 to 10
CC[C@@H]1C[C@H](NC(=O)COc2cc(C)on2)C[C@@H]1c1nnc2cnc3[nH]ccc3n12 [compound 26, N-((1S,3R,4S)-3-ethyl-4-(6H-pyrrolo[2,3-e][1,2,4]triazolo[4,3-a]pyrazin-1-yl)cyclopentyl)-2-(5-methylisoxazol-3-yloxy)acetamide]	> 10	–
CC[C@@H]1C[C@H](CCC#N)C[C@@H]1c1nnc2cnc3[nH]ccc3n12 [Example #22, 3-((1S,3R,4S)-3-ethyl-4-(6H-pyrrolo[2,3-e][1,2,4]triazolo[4,3-a]pyrazin-1-yl)cyclopentyl)propanenitrile]	–	1 to 10
C[C@@H]1CN(C(=O)NCC(F)F)C[C@@H]1c1cnc2cnc3[nH]ccc3n12 [Example 09, (3R,4S)—N-(2,2-difluoroethyl)-3-(3H-imidazo[1,2-a]pyrrolo[2,3-e]pyrazin-8-yl)-4-methylpyrrolidine-1-carboxamide]	–	1 to 10
CC[C@@H]1C[C@H](NC(=O)c2cc3ccc(C)cc3o2)C[C@@H]1c1nnc2cnc3[nH]ccc3n12 [compound 33, N-((1S,3R,4S)-3-ethyl-4-(6H-pyrrolo[2,3-e][1,2,4]triazolo[4,3-a]pyrazin-1-yl)cyclopentyl)-6-methylbenzofuran-2-carboxamide]	1 to 10	–
CC[C@@H]1CN(C(=O)CCCC#N)C[C@@H]1c1cnc2cnc3[nH]ccc3n12 [Example #12]	–	1 to 10
CC[C@@H]1C[C@H](NC(=O)c2cc(C)no2)C[C@@H]1c1nnc2cnc3[nH]ccc3n12 [compound 62, N-((1S,3R,4S)-3-ethyl-4-(6H-pyrrolo[2,3-e][1,2,4]triazolo[4,3-a]pyrazin-1-yl)cyclopentyl)-3-methylisoxazole-5-carboxamide]	1 to 10	–
CC[C@@H]1C[C@H](NC(=O)c2coc(C)n2)C[C@@H]1c1nnc2cnc3[nH]ccc3n12 [Example #24, N-((1S,3R,4S)-3-ethyl-4-(6H-pyrrolo[2,3-e][1,2,4]triazolo[4,3-a]pyrazin-1-yl)cyclopentyl)-2-methyloxazole-4-carboxamide]	–	1 to 10
CC[C@@H]1C[C@H](NC(=O)Cc2coc3ccccc23)C[C@@H]1c1nnc2cnc3[nH]ccc3n12 [compound 41, 2-(benzofuran-3-yl)-N-((1S,3R,4S)-3-ethyl-4-(6H-pyrrolo[2,3-e][1,2,4]triazolo[4,3-a]pyrazin-1-yl)cyclopentyl)acetamide]	1 to 10	–

Further lines, results first:

IC50 (Table B) [µM]	IC50 [µM]	SMILES
< 1	–	CC[C@@H]1C[C@H](NC(=O)c2noc3ccccc23)C[C@@H]1c1nnc2cnc3[nH]ccc3n12 [compound 68, N-((1S,3R,4S)-3-ethyl-4-(6H-pyrrolo[2,3-e][1,2,4]triazolo[4,3-a]pyrazin-1-yl)cyclopentyl)benzo[d]isoxazole-3-carboxamide]
1 to 10	–	CC[C@@H]1C[C@H](NC(=O)c2cc(OC)no2)C[C@@H]1c1nnc2cnc3[nH]ccc3n12 [compound 65, N-((1S,3R,4S)-3-ethyl-4-(6H-pyrrolo[2,3-e][1,2,4]triazolo[4,3-a]pyrazin-1-yl)cyclopentyl)-3-methoxyisoxazole-5-carboxamide]
1 to 10	–	CC[C@@H]1C[C@H](NC(=O)CNC(=O)c2ccc(C)o2)C[C@@H]1c1nnc2cnc3[nH]ccc3n12 [compound 30, N-(2-((1S,3R,4S)-3-ethyl-4-(6H-pyrrolo[2,3-e][1,2,4]triazolo[4,3-a]pyrazin-1-yl)cyclopentylamino)-2-oxoethyl)-5-methylfuran-2-carboxamide]
1 to 10	–	CC[C@@H]1C[C@H](NC(=O)c2cocn2)C[C@@H]1c1nnc2cnc3[nH]ccc3n12 [compound 63, N-((1S,3R,4S)-3-ethyl-4-(6H-pyrrolo[2,3-e][1,2,4]triazolo[4,3-a]pyrazin-1-yl)cyclopentyl)oxazole-4-carboxamide]
1 to 10	–	CC[C@@H]1C[C@H](NC(=O)c2ccc(CSC)o2)C[C@@H]1c1nnc2cnc3[nH]ccc3n12 [compound 64, N-((1S,3R,4S)-3-ethyl-4-(6H-pyrrolo[2,3-e][1,2,4]triazolo[4,3-a]pyrazin-1-yl)cyclopentyl)-5-(methylthiomethyl)furan-2-carboxamide]
1 to 10	–	CCc1cc(C(=O)N[C@H]2C[C@@H](CC)[C@@H](c3nnc4cnc5[nH]ccc5n34)C2)no1 [compound 76, 5-ethyl-N-((1S,3R,4S)-3-ethyl-4-(6H-pyrrolo[2,3-e][1,2,4]triazolo[4,3-a]pyrazin-1-yl)cyclopentyl)isoxazole-3-carboxamide]
1 to 10	–	CC[C@@H]1C[C@H](NC(=O)CCc2ccc(C)o2)C[C@@H]1c1nnc2cnc3[nH]ccc3n12 [compound 69, N-((1S,3R,4S)-3-ethyl-4-(6H-pyrrolo[2,3-e][1,2,4]triazolo[4,3-a]pyrazin-1-yl)cyclopentyl)-3-(5-methylfuran-2-yl)propanamide]
1 to 10	–	CC[C@@H]1C[C@H](NC(=O)c2c(C)oc3c2CCCC3)C[C@@H]1c1nnc2cnc3[nH]ccc3n12 [compound 35, N-((1S,3R,4S)-3-ethyl-4-(6H-pyrrolo[2,3-e][1,2,4]triazolo[4,3-a]pyrazin-1-yl)cyclopentyl)-2-methyl-4,5,6,7-tetrahydrobenzofuran-3-carboxamide]
1 to 10	–	CC[C@@H]1C[C@H](NC(=O)CNC(=O)c2cnoc2C)C[C@@H]1c1nnc2cnc3[nH]ccc3n12 [compound 38, N-(2-((1S,3R,4S)-3-ethyl-4-(6H-pyrrolo[2,3-e][1,2,4]triazolo[4,3-a]pyrazin-1-yl)cyclopentylamino)-2-oxoethyl)-5-methylisoxazole-4-carboxamide]
1 to 10	–	CC[C@@H]1C[C@H](NC(=O)c2conc2C)C[C@@H]1c1nnc2cnc3[nH]ccc3n12 [compound 34, N-((1S,3R,4S)-3-ethyl-4-(6H-pyrrolo[2,3-e][1,2,4]triazolo[4,3-a]pyrazin-1-yl)cyclopentyl)-3-methylisoxazole-4-carboxamide]
1 to 10	–	CC[C@@H]1C[C@H](NC(=O)c2cc(C)on2)C[C@@H]1c1nnc2cnc3[nH]ccc3n12 [compound 49, N-((1S,3R,4S)-3-ethyl-4-(6H-pyrrolo[2,3-e][1,2,4]triazolo[4,3-a]pyrazin-1-yl)cyclopentyl)-5-methylisoxazole-3-carboxamide]
< 1	–	CC[C@@H]1C[C@H](NC(=O)CCc2ccco2)C[C@@H]1c1nnc2cnc3[nH]ccc3n12 [compound 53, N-((1S,3R,4S)-3-ethyl-4-(6H-pyrrolo[2,3-e][1,2,4]triazolo[4,3-a]pyrazin-1-yl)cyclopentyl)-3-(furan-2-yl)propanamide]
1 to 10	–	CC[C@@H]1C[C@H](NC(=O)CCC2CC2)C[C@@H]1c1nnc2cnc3[nH]ccc3n12 [compound 45, 3-cyclopropyl-N-((1S,3R,4S)-3-ethyl-4-(6H-pyrrolo[2,3-e][1,2,4]triazolo[4,3-a]pyrazin-1-yl)cyclopentyl)propanamide]
1 to 10	–	CC[C@@H]1C[C@H](NC(=O)CSc2nnc(C)o2)C[C@@H]1c1nnc2cnc3[nH]ccc3n12 [compound 75, N-((1S,3R,4S)-3-ethyl-4-(6H-pyrrolo[2,3-e][1,2,4]triazolo[4,3-a]pyrazin-1-yl)cyclopentyl)-2-(5-methyl-1,3,4-oxadiazol-2-ylthio)acetamide]
